Laboratory results taken from patent US20230357320A1, “HELICAL STAPLED PEPTIDES AND USES THEREOF” (FOG PHARMACEUTICALS, INC., priority 2020, published 2023).
Starred links: 1 amine or outer side, 2 acyl side, 3 side chain; linkers in the order of their positions; H or OH if unused. Positions of bridges follow the written chain, without caps; N, C: chain ends. Non-standard residues stand in square brackets, D forms with d. Residues, ends and D or L forms follow the SMILES beside them. X1 = O=C([C@]1(CC=[*:3])CCCN1[*:1])[*:2]; αAllylPro = C=CC[C@@]1(C(=O)O)CCCN1; Ala(cPr) = N[C@@H](CC1CC1)C(=O)O; S5 = C=CCCC[C@](C)(N)C(=O)O

Legend:
[1] = in vitro; parameters: dose or concentration left out as unconfirmed; conditions: PAMPA, pH 7.4, PAMPA Pe
[2] = CHI Log D measurement (chromatographic hydrophobicity index)
[3] = for % Retention: PAMPA
[4] = reverse-phase HPLC, Phenomenex Gemini C-18 column, pH 7.4
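Throughout, for % Retention: Phospholipid-membrane PAMPA, donor and acceptor in DPBS pH 7.4 with 5% DMSO, 37 °C for 5 h, compound in each well quantified by reverse-phase HPLC-MS.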
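Throughout, for PAMPA Pe (text): Phospholipid-membrane PAMPA, donor and acceptor in DPBS pH 7.4 with 5% DMSO, 37 °C for 5 h, compound in each well quantified by reverse-phase HPLC-MS.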
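Throughout, for Papp: Phospholipid-membrane PAMPA, donor and acceptor in DPBS pH 7.4 with 5% DMSO, 37 °C for 5 h, compound in each well quantified by reverse-phase HPLC-MS.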

| Papp at 5 h [1] [×10⁻⁶ cm/s] | chromatographic logD ([2]; pH 7.4) | % Retention [3] [%] | chromatographic logD [2, 4] | logD ([2]; pH 7.4) | PAMPA Pe (text) [3] [×10⁻⁶ cm/s] | CHI Log D compared to the parent ProLock stapled peptide ([2]; result in words) | SMILES |
| --- | --- | --- | --- | --- | --- | --- | --- |
| ≤ 0.1 | 1.5 | 52 ± 8 | – | – | – | – | CNC(=O)[C@H](Cc1ccc(O)cc1)NC(=O)[C@@H](NC(=O)[C@H](CC(C)C)NC(=O)[C@H](CC(C)C)NC(=O)[C@H](CC(N)=O)NC(=O)[C@]1(C)CCCC=CC[C@]2(CCCN2)C(=O)N[C@@H](CCCCN)C(=O)N[C@@H](CC(C)C)C(=O)N1)[C@@H](C)O (single isomer, unassigned) [PLL4-5 variant 1, H-PL3-Lys-Leu-S5-Asn-Leu-Leu-Thr-Tyr-NHMe] |
| 0.4 ± 0.1 | 1.8 | 84 ± 2 | – | – | – | – | CNC(=O)[C@H](CC(=O)O)NC(=O)[C@H](CCC(N)=O)NC(=O)[C@H](CC(C)C)NC(=O)[C@H](CC(C)C)NC(=O)[C@H](Cc1ccc(O)cc1)NC(=O)[C@]1(C)CCCC=CC[C@]2(CCCN2)C(=O)N[C@@H](CC2CC2)C(=O)N[C@@H](CC(C)C)C(=O)N1 (single isomer, unassigned) [PLL7-7 variant 1, H-PL3-Cpa-Leu-S5-Tyr-Leu-Leu-Gln-Asp-NHMe] |
| ≤ 0.1 | – | 36 ± 1 | 2.4 | – | – | – | CNC(=O)[C@H](Cc1ccc(O)cc1)NC(=O)[C@H](CC(=O)O)NC(=O)[C@H](CC(C)C)NC(=O)[C@H](CC(C)C)NC(=O)[C@H](Cc1ccc(O)cc1)NC(=O)[C@]1(C)CCCC=CC[C@]2(CCCN2C(C)=O)C(=O)N[C@@H](CC(C)C)C(=O)N[C@@H](CC(C)C)C(=O)N1 [PLL5-1, Ac-PL3-Leu-Leu-S5-Tyr-Leu-Leu-Asp-Tyr-NHMe] (Ac-[X1]LL[S5]YLLDY-NHMe; staple 1-4) |
| ≤ 0.1 | – | 47 ± 6 | – | 1.9 | – | – | CNC(=O)[C@H](CC(=O)O)NC(=O)[C@H](CC(=O)O)NC(=O)[C@H](CC(C)C)NC(=O)[C@H](CC(C)C)NC(=O)[C@H](Cc1ccc(O)cc1)NC(=O)[C@]1(C)CCCC=CC[C@]2(CCCN2C(C)=O)C(=O)O[C@@H](CC(C)C)C(=O)N[C@@H](CC(C)C)C(=O)N1 (single isomer, unassigned) [PLL5-2 variant 2, Ac-PL3-Lec-Leu-S5-Tyr-Leu-Leu-Asp-Asp-NHMe] |
| 1.7 ± 0.4 | 1.8 | 90 ± 3 | – | – | 1.7 | – | C=CCCC[C@](C)(NC(=O)[C@H](CC(C)C)NC(=O)[C@H](CC(C)C)NC(=O)[C@]1(CC=C)CCCN1C(C)=O)C(=O)N[C@@H](Cc1ccc(O)cc1)C(=O)N[C@@H](CC(C)C)C(=O)N[C@@H](CC(C)C)C(=O)N[C@@H](CC(=O)O)C(=O)N[C@@H](CC(=O)O)C(=O)NC [PLL5-2 variant 5, Ac-PL3-Leu-Leu-S5-Tyr-Leu-Leu-Asp-Asp-NHMe] (Ac-[αAllylPro]LL[S5]YLLDD-NHMe) |
| ≤ 0.1 | 3.7 | 86 ± 2 | – | – | – | surprisingly high | CNC(=O)[C@H](CC(=O)O)NC(=O)[C@H](Cc1c[nH]cn1)NC(=O)[C@H](CC(C)C)NC(=O)[C@H](CC(C)C)NC(=O)[C@H](CCCNC(=N)N)NC(=O)[C@]1(C)CCCC=CC[C@]2(CCCN2)C(=O)N[C@@H](CC(C)C)C(=O)N[C@@H](CC(C)C)C(=O)N1 (single isomer, unassigned) [PLL7-9 variant 1, H-PL3-Leu-Leu-S5-Arg-Leu-Leu-His-Asp-NHMe] |
| 0.3 ± 0.1 | 2.3 | 84 ± 2 | – | – | – | – | C=CCCC[C@](C)(NC(=O)[C@H](CC(C)C)NC(=O)[C@H](CC1CC1)NC(=O)[C@]1(CC=C)CCCN1C(C)=O)C(=O)N[C@@H](Cc1ccc(O)cc1)C(=O)N[C@@H](CC(C)C)C(=O)N[C@@H](CC(C)C)C(=O)N[C@@H](CCC(N)=O)C(=O)N[C@@H](CC(=O)O)C(=O)NC [PLL7-7 variant 5, Ac-PL3-Cpa-Leu-S5-Tyr-Leu-Leu-Gln-Asp-NHMe] (Ac-[αAllylPro][Ala(cPr)]L[S5]YLLQD-NHMe) |
| 0.5 ± 0.1 | 2.5 | 91 ± 2 | – | – | – | – | C=CCCC[C@](C)(NC(=O)[C@H](CC(C)C)NC(=O)[C@H](CC(C)C)NC(=O)[C@]1(CC=C)CCCN1C(C)=O)C(=O)N[C@@H](CCCNC(=N)N)C(=O)N[C@@H](CC(C)C)C(=O)N[C@@H](CC(C)C)C(=O)N[C@@H](Cc1c[nH]cn1)C(=O)N[C@@H](CC(=O)O)C(=O)NC [PLL7-9 variant 5, Ac-PL3-Leu-Leu-S5-Arg-Leu-Leu-His-Asp-NHMe] (Ac-[αAllylPro]LL[S5]RLLHD-NHMe) |
| 0.5 ± 0.1 | 1.9 | 98 ± 10 | – | – | – | – | CC(=O)N1CCC[C@]12CC=CCCC[C@@](C)(C(=O)N[C@@H](CCCNC(=N)N)C(=O)N[C@@H](CC(C)C)C(=O)N[C@@H](CC(C)C)C(=O)N[C@@H](Cc1c[nH]cn1)C(=O)N[C@@H](CC(=O)O)C(N)=O)NC(=O)[C@H](CC(C)C)NC(=O)[C@H](CC(C)C)NC2=O (single isomer, unassigned) [PLL7-9 variant 3, Ac-PL3-Leu-Leu-S5-Arg-Leu-Leu-His-Asp-NH2] |
| ≤ 0.1 | – | 97 ± 1 | 3.2 | – | – | – | CNC(=O)[C@H](CCC(N)=O)NC(=O)[C@H](CC(C)C)NC(=O)[C@H](CC(C)C)NC(=O)[C@H](Cc1ccc(O)cc1)NC(=O)[C@]1(C)CCCC=CC[C@]2(CCCN2C(C)=O)C(=O)N[C@@H](CC(C)C)C(=O)N[C@@H](CC(C)C)C(=O)N1 [PLL5-12, Ac-PL3-Leu-Leu-S5-Tyr-Leu-Leu-Gln-NHMe] (Ac-[X1]LL[S5]YLLQ-NHMe; staple 1-4) |
| 0.5 ± 0.2 | 2.1 | 76 ± 10 | – | – | – | – | CC(=O)N1CCC[C@]12CC=CCCC[C@@](C)(C(=O)N[C@@H](Cc1c[nH]cn1)C(=O)N[C@@H](CC(C)C)C(=O)N[C@@H](CC(C)C)C(=O)N[C@@H](CC(N)=O)C(N)=O)NC(=O)[C@H](CC(C)C)NC(=O)[C@H](C)NC2=O (single isomer, unassigned) [PLL7-20 variant 3, Ac-PL3-Ala-Leu-S5-His-Leu-Leu-Asn-NH2] |
| ≤ 0.1 | 2.4 | 75 ± 1 | – | – | – | – | CNC(=O)[C@H](CC(=O)O)NC(=O)[C@H](CCC(N)=O)NC(=O)[C@H](CC(C)C)NC(=O)[C@H](CC(C)C)NC(=O)[C@H](Cc1ccc(O)cc1)NC(=O)[C@]1(C)CCCC=CCCC[C@](C)(NC(C)=O)C(=O)N[C@@H](C)C(=O)N[C@@H](CC2CC2)C(=O)N[C@@H](CC(C)C)C(=O)N1 [PLL7-7 variant 4, Ac-S5-Ala-Cpa-Leu-S5-Tyr-Leu-Leu-Gln-Asp-NHMe] (Ac-[S5]A[Ala(cPr)]L[S5]YLLQD-NHMe; staple 1-5) |
| ≤ 0.1 | 2.6 | 64 ± 1 | – | – | – | – | CNC(=O)[C@H](CC(=O)O)NC(=O)[C@H](CCC(N)=O)NC(=O)[C@H](CC(C)C)NC(=O)[C@H](CC(C)C)NC(=O)[C@H](Cc1ccc(O)cc1)NC(=O)[C@]1(C)CCCC=CC[C@]2(CCCN2C(C)=O)C(=O)O[C@@H](CC(C)C)C(=O)N[C@@H](CC(C)C)C(=O)N1 (single isomer, unassigned) [PLL7-7 variant 2, Ac-PL3-Lec-Leu-S5-Tyr-Leu-Leu-Gln-Asp-NHMe] |
| 0.5 ± 0.1 | 1.8 | 75 ± 1 | – | – | – | – | CC(=O)N1CCC[C@]12CC=CCCC[C@@](C)(C(=O)N[C@@H](Cc1ccc(O)cc1)C(=O)N[C@@H](CC(C)C)C(=O)N[C@@H](CC(C)C)C(=O)N[C@@H](CCC(N)=O)C(=O)N[C@@H](CC(=O)O)C(N)=O)NC(=O)[C@H](CC(C)C)NC(=O)[C@H](CC1CC1)NC2=O (single isomer, unassigned) [PLL7-7 variant 3, Ac-PL3-Cpa-Leu-S5-Tyr-Leu-Leu-Gln-Asp-NH2] |
| ≤ 0.1 | 2.6 | 74 ± 6 | – | – | – | – | CNC(=O)[C@H](CC(N)=O)NC(=O)[C@H](CC(C)C)NC(=O)[C@H](CC(C)C)NC(=O)[C@H](Cc1c[nH]cn1)NC(=O)[C@]1(C)CCCC=CCCC[C@](C)(NC(C)=O)C(=O)N[C@@H](C)C(=O)N[C@@H](C)C(=O)N[C@@H](CC(C)C)C(=O)N1 [PLL7-20 variant 4, Ac-S5-Ala-Ala-Leu-S5-His-Leu-Leu-Asn-NHMe] (Ac-[S5]AAL[S5]HLLN-NHMe; staple 1-5) |
| 0.3 ± 0.1 | 2.2 | 66 ± 2 | – | – | – | – | CNC(=O)[C@H](CC(=O)O)NC(=O)[C@H](CC(C)C)NC(=O)[C@H](CC(C)C)NC(=O)[C@H](Cc1ccc(O)cc1)NC(=O)[C@]1(C)CCCC=CC[C@]2(CCCN2)C(=O)N[C@@H](CC(C)C)C(=O)N[C@@H](CC(C)C)C(=O)N1 (single isomer, unassigned) [PLL4-10 variant 1, H-PL3-Leu-Leu-S5-Tyr-Leu-Leu-Asp-NHMe] |
| ≤ 0.1 | – | 83 ± 1 | 3.5 | – | – | – | CNC(=O)[C@H](Cc1ccc(O)cc1)NC(=O)[C@H](CCC(N)=O)NC(=O)[C@H](CC(C)C)NC(=O)[C@H](CC(C)C)NC(=O)[C@H](Cc1ccc(O)cc1)NC(=O)[C@]1(C)CCCC=CC[C@]2(CCCN2C(C)=O)C(=O)N[C@@H](CC(C)C)C(=O)N[C@@H](CC(C)C)C(=O)N1 [PLL5-3, Ac-PL3-Leu-Leu-S5-Tyr-Leu-Leu-Gln-Tyr-NHMe] (Ac-[X1]LL[S5]YLLQY-NHMe; staple 1-4) |
